Measured values: patent US20230053540A1, “TREATMENT OF LIVER INJURY” (Massachusetts Institute of Technology, priority 2019, published 2023)

System: hepatocytes
Assay: Seq-Well scRNA-Seq of hepatocytes after APAP overdose (signature scores, DEG vs untreated)
Type: in vivo, mouse

`CC(=O)Nc1ccc(O)cc1` [APAP, acetaminophen] was tested, and the “avg_logFC Snx3” value (cluster A48 (APAP, 48 h)) was 0.2562, the “avg_logFC Sord” value (cluster A48 (APAP, 48 h)) was 0.3763 and the “avg_logFC St3gal5” value (cluster A48 (APAP, 48 h)) was 0.3766. The “avg_logFC Stbd1” value (cluster A48 (APAP, 48 h)) was 0.2667, the “avg_logFC Sult1a1” value (cluster A48 (APAP, 48 h)) was 0.3856 and the “avg_logFC Sult1d1” value (cluster A48 (APAP, 48 h)) was 0.5282. For the same compound, the “avg_logFC Syvn1” value (cluster A48 (APAP, 48 h)) was 0.2867, the “avg_logFC Tcea3” value (cluster A48 (APAP, 48 h)) was 0.3934 and the “avg_logFC Tef” value (cluster A48 (APAP, 48 h)) was 0.3162. The “avg_logFC Tmbim4” value (cluster A48 (APAP, 48 h)) was 0.3931, the “avg_logFC Tmbim6” value (cluster A48 (APAP, 48 h)) was 0.3567 and the “avg_logFC Tmem219” value (cluster A48 (APAP, 48 h)) was 0.2647. For the same compound, the “avg_logFC Ttc36” value (cluster A48 (APAP, 48 h)) was 0.6145, the “avg_logFC Ttpa” value (cluster A48 (APAP, 48 h)) was 0.4757 and the “avg_logFC Ttr” value (cluster A48 (APAP, 48 h)) was 0.4205. For the same compound, the “avg_logFC Ugt2b5” value (cluster A48 (APAP, 48 h)) was 0.6108, the “avg_logFC Ugt2b36” value (cluster A48 (APAP, 48 h)) was 0.3503 and the “avg_logFC Upb1” value (cluster A48 (APAP, 48 h)) was 0.3631. The “avg_logFC Usmg5” value (cluster A48 (APAP, 48 h)) was 0.4173, the “avg_logFC Vnn3” value (cluster A48 (APAP, 48 h)) was 0.3054 and the “avg_logFC Vtn” value (cluster A48 (APAP, 48 h)) was 0.3638. The “avg_logFC Yipf3” value (cluster A48 (APAP, 48 h)) was 0.2702, the “avg_logFC Zfp91” value (cluster A48 (APAP, 48 h)) was 0.3221 and the “pct.1, gene Abcc3” value (cluster A96) was 0.733. The “pct.1, gene Acaa1b” value (cluster A96) was 0.986, the “pct.1, gene Acat1” value (cluster A96) was 0.917 and the “pct.1, gene Acot1” value (cluster A96) was 0.459. The “pct.1, gene Agpat6” value (cluster A96) was 0.743, the “pct.1, gene Agt” value (cluster A96) was 0.912 and the “pct.1, gene Akr1d1” value (cluster A96) was 0.721. The “pct.1, gene Aldh9a1” value (cluster A96) was 0.884, the “pct.1, gene Aplp2” value (cluster A96) was 0.826 and the “pct.1, gene Apo17a” value (cluster A96) was 0.559. For the same compound, the “pct.1, gene Apoc2” value (cluster A96) was 0.901, the “pct.1, gene Aqp9” value (cluster A96) was 0.801 and the “pct.1, gene Arl4a” value (cluster A96) was 0.517. The “pct.1, gene Asl” value (cluster A96) was 0.896, the “pct.1, gene Baat” value (cluster A96) was 0.862 and the “pct.1, gene Bnip3” value (cluster A96) was 0.716. The “pct.1, gene Cd36” value (cluster A96) was 0.299, the “pct.1, gene Ces1e” value (cluster A96) was 0.71 and the “pct.1, gene Cox5a” value (cluster A96) was 0.813. For the same compound, the “pct.1, gene Cox6a1” value (cluster A96) was 0.943, the “pct.1, gene Cox8a” value (cluster A96) was 0.737 and the “pct.1, gene Cpeb4” value (cluster A96) was 0.527. For the same compound, the “pct.1, gene Cpox” value (cluster A96) was 0.634, the “pct.1, gene Cpt1a” value (cluster A96) was 0.837 and the “pct.1, gene Creg1” value (cluster A96) was 0.985. The “pct.1, gene Csad” value (cluster A96) was 0.843, the “pct.1, gene Ctage5” value (cluster A96) was 0.837 and the “pct.1, gene Cth” value (cluster A96) was 0.944. The “pct.1, gene Cxcl12” value (cluster A96) was 0.635, the “pct.1, gene D4Wsu53e” value (cluster A96) was 0.597 and the “pct.1, gene Decr2” value (cluster A96) was 0.813. The “pct.1, gene Dhdh” value (cluster A96) was 0.734, the “pct.1, gene Etfdh” value (cluster A96) was 0.811 and the “pct.1, gene Etnppl” value (cluster A96) was 0.677. The “pct.1, gene F5” value (cluster A96) was 0.858, the “pct.1, gene Fmo1” value (cluster A96) was 0.606 and the “pct.1, gene G0s2” value (cluster A96) was 0.525. For the same compound, the “pct.1, gene G6pc” value (cluster A96) was 0.86, the “pct.1, gene Gabarapl1” value (cluster A96) was 0.881 and the “pct.1, gene Gadd45b” value (cluster A96) was 0.452. For the same compound, the “pct.1, gene Gas5” value (cluster A96) was 0.68, the “pct.1, gene Gm4952” value (cluster A96) was 0.663 and the “pct.1, gene Gsta2” value (cluster A96) was 0.522. The “pct.1, gene Gstt3” value (cluster A96) was 0.541, the “pct.1, gene Gyk” value (cluster A96) was 0.616 and the “pct.1, gene Hmgcl” value (cluster A96) was 0.871. The “pct.1, gene Hmgcs1” value (cluster A96) was 0.858, the “pct.1, gene Hpgd” value (cluster A96) was 0.588 and the “pct.1, gene Hsd17b7” value (cluster A96) was 0.56. The “pct.1, gene Hsd17b10” value (cluster A96) was 0.841, the “pct.1, gene Igfbp1” value (cluster A96) was 0.826 and the “pct.1, gene Kif1b” value (cluster A96) was 0.686. The “pct.1, gene Lcat” value (cluster A96) was 0.886, the “pct.1, gene Mia3” value (cluster A96) was 0.81 and the “pct.1, gene Ndufa3” value (cluster A96) was 0.737. The “pct.1, gene Ndufa7” value (cluster A96) was 0.818, the “pct.1, gene Nr1i3” value (cluster A96) was 0.625 and the “pct.1, gene Oat” value (cluster A96) was 0.653. For the same compound, the “pct.1, gene Pon1” value (cluster A96) was 0.965, the “pct.1, gene Por” value (cluster A96) was 0.858 and the “pct.1, gene Ppp1r3b” value (cluster A96) was 0.536. The “pct.1, gene Ppp2r5a” value (cluster A96) was 0.764, the “pct.1, gene Ptms” value (cluster A96) was 0.806 and the “pct.1, gene Pxmp4” value (cluster A96) was 0.687. The “pct.1, gene Rdh16” value (cluster A96) was 0.494, the “pct.1, gene Rdx” value (cluster A96) was 0.824 and the “pct.1, gene Rgn” value (cluster A96) was 0.899. The “pct.1, gene Sc4mol” value (cluster A96) was 0.781, the “pct.1, gene Slc4a4” value (cluster A96) was 0.609 and the “pct.1, gene Slc25a20” value (cluster A96) was 0.671. The “pct.1, gene Slco1a4” value (cluster A96) was 0.507, the “pct.1, gene Snord118” value (cluster A96) was 0.564 and the “pct.1, gene Tgoln1” value (cluster A96) was 0.756. The “pct.1, gene Tmed5” value (cluster A96) was 0.714, the “pct.1, gene Tobi” value (cluster A96) was 0.649 and the “pct.1, gene Tsc22d3” value (cluster A96) was 0.534. The “pct.1, gene Zfp36l1” value (cluster A96) was 0.601 and the “pct.1, gene Zfp91” value (cluster A96) was 0.693.
